Experiments:
VCaP tumor xenograft [1] = details: cited from earlier work
VCaP tumor xenograft [2] = test: VCaP tumor xenograft study in intact (non-castrated) mice; format: in vivo, mouse; details: enzalutamide 20 mg/kg orally QD for 21 days
Description: To mimic higher androgen levels found in an incomplete testosterone suppression environment, intact (non-castrated) mice were employed for a VCaP tumor xenograft study.

prostate = test: 10-day prostate involution study in rats; format: in vivo, rat; details: enzalutamide 100 mg/kg/day orally, 10 days, intact rats
Protocol: Enzalutamide and Compound A were orally administered once daily at the indicated doses. After 10 days of treatment, the prostate tissue from each rat was isolated and weighed. Treatment groups (n=5 per group) were compared by one way ANOVA. Note: ns: not significant, *: p<0.05, **: p≤0.01.
To substantiate the on-target mechanism of Compound A, a prostate involution study was conducted in rats. […] Twenty-four hours after the last dose, the rats were euthanized, and the prostate organs were isolated and weighed.

PSA = test: intracellular PSA ELISA in VCaP cells; format: cell-based; details: Homo sapiens, CSS + 0.1 nM R1881, 48 hours, read-out: IC50, inhibiting PSA expression
Protocol: Intracellular prostate specific antigen (PSA) levels were determined using a PSA enzyme-linked immunosorbent assay (ELISA). […] The cell proliferation was determined using the CellTiter-Glo® assay. […] The CaspaseGlo® assay was carried out to measure the level of apoptosis in cells.
To evaluate the pharmacological effect of Compound A in vitro, PSA, cell proliferation, and apoptosis assays were carried out in VCaP cells.

cereblon = cereblon (Homo sapiens, UniProt Q96SW2); details: pomalidomide 10 μM
Sequence of cereblon (Q96SW2 whole entry): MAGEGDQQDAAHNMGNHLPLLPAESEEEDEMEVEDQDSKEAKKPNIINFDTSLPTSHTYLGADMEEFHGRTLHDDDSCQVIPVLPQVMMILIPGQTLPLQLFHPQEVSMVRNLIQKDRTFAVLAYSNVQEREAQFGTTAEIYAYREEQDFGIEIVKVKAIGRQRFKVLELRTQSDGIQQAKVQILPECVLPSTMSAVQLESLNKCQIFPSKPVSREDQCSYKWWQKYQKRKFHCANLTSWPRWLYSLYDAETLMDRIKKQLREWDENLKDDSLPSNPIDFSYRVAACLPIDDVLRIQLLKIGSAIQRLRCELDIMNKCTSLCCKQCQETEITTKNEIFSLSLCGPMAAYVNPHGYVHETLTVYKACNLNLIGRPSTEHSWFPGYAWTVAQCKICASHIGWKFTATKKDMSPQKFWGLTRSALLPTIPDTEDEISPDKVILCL

## CNC(=O)c1ccc(N2C(=S)N(c3ccc(C#N)c(C(F)(F)F)c3)C(=O)C2(C)C)cc1F [enzalutamide, reference compound]
VCaP tumor xenograft [1]
  activity in the intact VCaP setting (published data): very modest activity, or no activity at all
VCaP tumor xenograft [2]
  tumor growth inhibition (TGI): 27%
prostate
  Mean (±SEM) prostate weights: 818 ± 170 mg
PSA
  IC50: 175 nM

## Nc1cccc2c1C(=O)N(C1CCC(=O)NC1=O)C2=O (centres unmarked) [pomalidomide]
cereblon
  effect on Compound A mediated AR degradation: blocked Compound A mediated degradation
